Results from ChEMBL document CHEMBL3885881, “DrugMatrix”.

Organism: Rattus norvegicus
Assay: DrugMatrix - Regimen: Daily Repeat
Format: toxicity, organism-based, Sprague-Dawley
Design: regimen Daily Repeat, gender Male, age 6-8 weeks
Details: in vivo, po, route oral GAVAGE, […]; for ABSOLUTE BASOPHIL / ABSOLUTE EOSINOPHIL / ABSOLUTE LYMPHOCYTE / ABSOLUTE MONOCYTE / ABSOLUTE SEGMENTED NEUTROPHIL / BASOPHIL / EOSINOPHIL / ERYTHROCYTE COUNT / HEMATOCRIT / HEMOGLOBIN / LEUKOCYTE COUNT / LYMPHOCYTE / MEAN CORPUSCULAR HEMOGLOBIN / MEAN CORPUSCULAR HEMOGLOBIN CONCENTRATION / MEAN CORPUSCULAR VOLUME / MONOCYTE / NEUTROPHIL / NUCLEATED RED BLOOD CELLS / PLATELET COUNT: tissue Blood; for ALANINE AMINOTRANSFERASE / ALBUMIN / ALKALINE PHOSPHATASE / ASPARTATE AMINOTRANSFERASE / BLOOD UREA NITROGEN / CARBON DIOXIDE / CHLORIDE / CHOLESTEROL / CREATINE PHOSPHOKINASE / CREATININE / GLUCOSE / LACTATE DEHYDROGENASE / LIPASE / PHOSPHORUS / POTASSIUM / SODIUM / TOTAL BILIRUBIN / TOTAL PROTEIN / URIC ACID: tissue Plasma
[1] = 0 mg/kg, 72 h, dose level Control, time 3 day
[2] = 0 mg/kg, dose level Control, time 7 day
[3] = 400 mg/kg, 72 h, dose level Low, time 3 day

SMILES: ClC(Cl)(Cl)Cl [CARBON TETRACHLORIDE]
- ABSOLUTE BASOPHIL [1]: 0 CELLS/uL
- ABSOLUTE EOSINOPHIL [1]: 47.5 CELLS/uL
- ABSOLUTE LYMPHOCYTE [1]: 9600.67 CELLS/uL
- ABSOLUTE MONOCYTE [1]: 195.5 CELLS/uL
- ABSOLUTE SEGMENTED NEUTROPHIL [1]: 839.67 CELLS/uL
- BASOPHIL [1]: 0%
- EOSINOPHIL [1]: 0.5%
- ERYTHROCYTE COUNT [1]: 5.26 x10E6/uL
- HEMATOCRIT [1]: 34.48%
- HEMOGLOBIN [1]: 12.77 G/DL
- LEUKOCYTE COUNT [1]: 10.68 x10E3/uL
- LYMPHOCYTE [1]: 89.67%
- MEAN CORPUSCULAR HEMOGLOBIN [1]: 24.3 pg
- MEAN CORPUSCULAR HEMOGLOBIN CONCENTRATION [1]: 37.05 G/DL
- MEAN CORPUSCULAR VOLUME [1]: 65.62 fL
- MONOCYTE [1]: 1.83%
- NEUTROPHIL [1]: 8%
- NUCLEATED RED BLOOD CELLS [1]: 0.17 /100WBC
- PLATELET COUNT [1]: 1038.67 x10E3/uL
- ALANINE AMINOTRANSFERASE [1]: 65.17 u/L
- ALBUMIN [1]: 4.2 G/DL
- ALKALINE PHOSPHATASE [1]: 377.5 u/L
- ASPARTATE AMINOTRANSFERASE [1]: 90.5 u/L
- BLOOD UREA NITROGEN [1]: 13.5 mg/dL
- CARBON DIOXIDE [1]: 31.17 mmol/L
- CHLORIDE [1]: 98.33 MEQ/L
- CHOLESTEROL [1]: 66.33 mg/dL
- CREATINE PHOSPHOKINASE [1]: 478.83 u/L
- CREATININE [1]: 0.19 mg/dL
- GLUCOSE [1]: 155.17 mg/dL
- LACTATE DEHYDROGENASE [1]: 107.5 u/L
- LIPASE [1]: 10.33 u/L
- PHOSPHORUS [1]: 9.25 mg/dL
- POTASSIUM [1]: 5.43 MEQ/L
- SODIUM [1]: 142.05 MEQ/L
- TOTAL BILIRUBIN [1]: 0.12 mg/dL
- TOTAL PROTEIN [1]: 5.95 G/DL
- URIC ACID [1]: 0.62 mg/dL
- ABSOLUTE BASOPHIL [2]: 0 CELLS/uL
- ABSOLUTE EOSINOPHIL [2]: 43.5 CELLS/uL
- ABSOLUTE LYMPHOCYTE [2]: 9369.83 CELLS/uL
- ABSOLUTE MONOCYTE [2]: 196.17 CELLS/uL
- ABSOLUTE SEGMENTED NEUTROPHIL [2]: 723.83 CELLS/uL
- BASOPHIL [2]: 0%
- EOSINOPHIL [2]: 0.5%
- ERYTHROCYTE COUNT [2]: 5.09 x10E6/uL
- HEMATOCRIT [2]: 32.42%
- HEMOGLOBIN [2]: 13.1 G/DL
- LEUKOCYTE COUNT [2]: 10.33 x10E3/uL
- LYMPHOCYTE [2]: 90.83%
- MEAN CORPUSCULAR HEMOGLOBIN [2]: 25.75 pg
- MEAN CORPUSCULAR HEMOGLOBIN CONCENTRATION [2]: 40.43 G/DL
- MEAN CORPUSCULAR VOLUME [2]: 63.62 fL
- MONOCYTE [2]: 1.67%
- NEUTROPHIL [2]: 7%
- NUCLEATED RED BLOOD CELLS [2]: 0 /100WBC
- PLATELET COUNT [2]: 1106.5 x10E3/uL
- ALANINE AMINOTRANSFERASE [2]: 48.67 u/L
- ALBUMIN [2]: 4.13 G/DL
- ALKALINE PHOSPHATASE [2]: 275.17 u/L
- ASPARTATE AMINOTRANSFERASE [2]: 73.17 u/L
- BLOOD UREA NITROGEN [2]: 13.17 mg/dL
- CARBON DIOXIDE [2]: 27.5 mmol/L
- CHLORIDE [2]: 99.67 MEQ/L
- CHOLESTEROL [2]: 60.83 mg/dL
- CREATINE PHOSPHOKINASE [2]: 213 u/L
- CREATININE [2]: 0.2 mg/dL
- GLUCOSE [2]: 166.67 mg/dL
- LACTATE DEHYDROGENASE [2]: 94.5 u/L
- LIPASE [2]: 10.5 u/L
- PHOSPHORUS [2]: 9.98 mg/dL
- POTASSIUM [2]: 5.3 MEQ/L
- SODIUM [2]: 140.77 MEQ/L
- TOTAL BILIRUBIN [2]: 0.15 mg/dL
- TOTAL PROTEIN [2]: 5.88 G/DL
- URIC ACID [2]: 0.82 mg/dL
- ABSOLUTE BASOPHIL [3]: 0 CELLS/uL
- ABSOLUTE EOSINOPHIL [3]: 68.67 CELLS/uL
- ABSOLUTE LYMPHOCYTE [3]: 9955.17 CELLS/uL
- ABSOLUTE MONOCYTE [3]: 295.83 CELLS/uL
- ABSOLUTE SEGMENTED NEUTROPHIL [3]: 1063.67 CELLS/uL
- BASOPHIL [3]: 0%
- EOSINOPHIL [3]: 0.67%
- ERYTHROCYTE COUNT [3]: 5.78 x10E6/uL
- HEMATOCRIT [3]: 36.52%
- HEMOGLOBIN [3]: 13.38 G/DL
- LEUKOCYTE COUNT [3]: 11.38 x10E3/uL
- LYMPHOCYTE [3]: 87.5%
- MEAN CORPUSCULAR HEMOGLOBIN [3]: 23.22 pg
- MEAN CORPUSCULAR HEMOGLOBIN CONCENTRATION [3]: 36.7 G/DL
- MEAN CORPUSCULAR VOLUME [3]: 63.22 fL
- MONOCYTE [3]: 2.67%
- NEUTROPHIL [3]: 9.17%
- NUCLEATED RED BLOOD CELLS [3]: 0 /100WBC
- PLATELET COUNT [3]: 836.5 x10E3/uL
- ALANINE AMINOTRANSFERASE [3]: 112.17 u/L
- ALBUMIN [3]: 3.92 G/DL
- ALKALINE PHOSPHATASE [3]: 474.67 u/L
- ASPARTATE AMINOTRANSFERASE [3]: 154.33 u/L
- BLOOD UREA NITROGEN [3]: 15.5 mg/dL
- CARBON DIOXIDE [3]: 31.67 mmol/L
- CHLORIDE [3]: 101 MEQ/L
- CHOLESTEROL [3]: 43.17 mg/dL
- CREATINE PHOSPHOKINASE [3]: 313.5 u/L
- CREATININE [3]: 0.21 mg/dL
- GLUCOSE [3]: 143.17 mg/dL
- LACTATE DEHYDROGENASE [3]: 105 u/L
- LIPASE [3]: 12 u/L
- PHOSPHORUS [3]: 9.75 mg/dL
- POTASSIUM [3]: 5.51 MEQ/L
- SODIUM [3]: 145.37 MEQ/L
- TOTAL BILIRUBIN [3]: 0.1 mg/dL
- TOTAL PROTEIN [3]: 5.6 G/DL
- URIC ACID [3]: 0.52 mg/dL
